The values that follow come from PubChem BioAssay (NCI).

Assay in all cases: DTP human tumour cell line panel, 48 h
In experiment [1] the test system is OVCAR-4 ovarian.
In experiment [2] the test system is U251 CNS.
The test system of experiment [3] is OVCAR-8 ovarian.
Experiment [4] has as its system HS 578T breast.
For experiment [5], the system named is OVCAR-3 ovarian.
The subject of experiment [6] is T-47D breast.
Experiment [7] deals with SK-MEL-28 melanoma.
Experiment [8] deals with SW-620 colon.
The test system of experiment [9] is HOP-62 NSCLC.
For experiment [10], the system named is A498 renal.

Molecules are shown by their SMILES.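 Assay format: 96-well plates, 48-hour exposure. Abbreviation: GI50, concentration required for 50% inhibition of growth. TGI marks complete inhibition of growth.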 Where only a bound is given, the exact number is not on record here.

With `COc1cccc(C23CCCC(C2)N(C)CC3OC(=O)c2ccccc2)c1OC` (stereo not given), the TGI in experiment [1] is greater than 100 µM; in experiment [2] it was greater than 100 µM; in experiment [3], 38.7 µM; in experiment [4], 78.6 µM; in experiment [5] it was greater than 100 µM; in experiment [6] it was 81.2 µM. The TGI in experiment [7] was 87.8 µM; in experiment [8], greater than 100 µM; in [9], greater than 100 µM; in experiment [10], greater than 100 µM.
Take `COc1cc2c(cc1O)CCN(C)[C@H]2Cc1ccc(Oc2c(O)c(OC)cc3c2C[C@H]2c4c(c(OC)c(OC)c(OC)c4-3)CCN2C)cc1`: the TGI stood at 4.38 µM in experiment [1]; 9.05 µM in experiment [2]; 13.1 µM in [3]; 17.7 µM in experiment [4]; 10.6 µM in experiment [5]; 12.2 µM in [6]. The TGI was 11.7 µM in experiment [7], 10 µM in experiment [8], 11.8 µM in experiment [9] and 12.7 µM in experiment [10].
For `CC1=NN2C(=N)/C(=C/c3ccccc3)C(=O)N=C2S1`, the TGI in experiment [1], in [2], in [3], in experiment [4], in experiment [5] and in experiment [6] was greater than 100 µM in each case. In addition, the TGI in experiment [7], in experiment [8], in experiment [9] and in experiment [10] was greater than 100 µM in each case.
For `N#Cc1c(N2CCN(c3ccc([N+](=O)[O-])cc3)CC2)[n+](=O)c2ccc(-c3ccc([N+](=O)[O-])cc3)cc2n1[O-]`, the TGI in [1] was greater than 100 µM; in experiment [2] it was greater than 41 µM; in experiment [3] it was greater than 100 µM; in experiment [4], greater than 100 µM; in experiment [5], greater than 77.2 µM; in experiment [6], greater than 100 µM. The TGI in experiment [7] was greater than 100 µM; in [8], greater than 100 µM; in experiment [9], 23.8 µM; in experiment [10], greater than 100 µM.
For the compound `C=CCc1ccccc1C1CC2(C(=O)OC)OC1C(C(=O)OC)=C2C(=O)OC` (stereo not given), the total growth inhibition concentration (TGI) in experiment [1], in [2], in [3], in experiment [4], in experiment [5] and in experiment [6] was greater than 10 µM throughout. Further, the TGI in [7], in experiment [8], in [9] and in experiment [10] was greater than 10 µM each time.
On to `CC(=O)O[C@H]1CCC2[C@@H]3CCC4NC(=O)C(C#N)C[C@]4(C)C3CC[C@@]21C` (stereo not given in full), for which the TGI in experiment [1], in experiment [2], in [3], in experiment [4], in experiment [5] and in experiment [6] was greater than 10 µM in each case. Also, the TGI in [7], in experiment [8], in experiment [9] and in experiment [10] was greater than 10 µM in each case.
As for `Cc1ccc(/C=N\NC(=O)c2ccncc2)s1`, the TGI in experiment [1], in experiment [2], in [3], in [4], in experiment [5] and in [6] was greater than 100 µM each time. Moreover, the TGI in experiment [7], in experiment [8], in experiment [9] and in [10] was greater than 100 µM in each case.
For `CC1CN=C(c2ccc(CN3CCC(C4CCN(Cc5ccc(C6=NCC(C)N6)cc5)CC4)CC3)cc2)N1` (stereo not given), the TGI in experiment [1] was 38.8 µM; in experiment [2], 29.6 µM; in experiment [3], greater than 100 µM; in experiment [4], 41.8 µM; in experiment [5], 44.5 µM; in [6] it was 49.4 µM. Also, the TGI in experiment [7] is greater than 100 µM; in experiment [8], 43.1 µM; in experiment [9], 30.9 µM; in [10] it was 80.6 µM.
Turning to `CC1CN=C(c2ccc(-c3nc(-c4ccc(C5=NCC(C)N5)cc4)nc(N(C)C)n3)cc2)N1` (stereo not given), the TGI in experiment [1] turned out to be 3.67 µM; in [2], 2.35 µM; in [3], 10 µM; in experiment [4], 17.6 µM; in experiment [5], 4.74 µM; in experiment [6], 12.9 µM. For the same compound, the TGI in [7] turned out to be 8.12 µM; in experiment [8] it was 5.56 µM; in [9], 5.35 µM; in [10], 6.7 µM.
Consider `COc1cc2oc(-c3ccc4c(c3)OCO4)c(OC)c(=O)c2c(O)c1OC`, for which the TGI in experiment [1], in experiment [2], in [3], in [4], in experiment [5] and in [6] was greater than 50 µM each time. In addition, the TGI in [7], in [8], in experiment [9] and in [10] was greater than 50 µM throughout.
For the compound `COC(=O)[C@@H]1C=C[C@H](NC(C)=O)C1`, the TGI in experiment [1], in experiment [2], in experiment [3], in experiment [4], in [5] and in experiment [6] was greater than 100 µM each time. In addition, the TGI in experiment [7], in experiment [8], in experiment [9] and in experiment [10] was greater than 100 µM throughout.
With `O=C(O)CCSC1=NCCN1`, the TGI in [1], in experiment [2], in [3], in [4], in [5] and in experiment [6] was greater than 100 µM each time. The TGI in experiment [7], in experiment [8], in experiment [9] and in experiment [10] was greater than 100 µM throughout.
On to `CC1(C)[C@@H](OC(N)=O)C=C[C@]2(CO)[C@H]3CC[C@]4(C)[C@@H](c5ccc(=O)oc5)[C@@H](Cl)C[C@]4(O)C3=CC[C@@H]12`, for which the GI50 in experiment [1] was less than 0.0001 µM; in experiment [2], 0.0043 µM; in experiment [3], 0.0028 µM; in [4] it was less than 0.0001 µM; in experiment [5], less than 0.0001 µM; in experiment [6] it was 0.00359 µM. For the same compound, the GI50 was 0.0116 µM in [7], 0.00262 µM in experiment [8], less than 0.0001 µM in experiment [9] and 0.0122 µM in experiment [10]. Further, the TGI in [1] worked out at 0.00372 µM; in [2] it was 0.0158 µM; in experiment [3] it was 0.0151 µM; in experiment [4], 0.00837 µM; in [5], 0.00411 µM; in experiment [6], 0.0326 µM. Moreover, the TGI is 0.0303 µM in [7], 0.0145 µM in experiment [8], 0.00316 µM in experiment [9] and 0.0557 µM in experiment [10].
In the case of `Cc1ccc(NC2=N/C(=C/c3ccco3)C(Cl)=N2)cc1`, the TGI in [1], in [2], in experiment [3], in [4], in experiment [5] and in experiment [6] was greater than 100 µM each time. The TGI in experiment [7], in experiment [8], in experiment [9] and in experiment [10] was greater than 100 µM each time.
As for `CNC(=O)N(CCC#N)CCCN(C(=O)N(C)C)c1ccccc1`, the TGI in [1], in experiment [2], in experiment [3], in [4], in experiment [5] and in experiment [6] was greater than 100 µM each time. The TGI in experiment [7], in experiment [8], in experiment [9] and in [10] was greater than 100 µM each time.
As to `Cn1ccc2c(c1=O)C(=O)OC2(C)C`, the TGI in experiment [1], in experiment [2], in experiment [3], in experiment [4], in [5] and in experiment [6] was greater than 100 µM in each case. The TGI in experiment [7], in [8], in experiment [9] and in [10] was greater than 100 µM each time.
On to `COC(=O)c1cc(C)ccc1/C=C1\Cc2c(C)cc(C)cc2C1=O`, for which the TGI in experiment [1] is greater than 100 µM; in experiment [2], 42.9 µM; in [3], greater than 100 µM; in experiment [4], 42.9 µM; in experiment [5], greater than 100 µM; in [6], greater than 100 µM. For the same compound, the TGI is greater than 100 µM in experiment [7], greater than 100 µM in experiment [8], 32.4 µM in [9] and 76.4 µM in [10].
With `O=NN1CCCS1(=O)=O`, the TGI in experiment [1], in [2], in experiment [3], in experiment [4], in experiment [5] and in [6] was greater than 100 µM throughout. Moreover, the TGI in experiment [7], in experiment [8], in [9] and in [10] was greater than 100 µM in each case.
Turning to `COc1ccc2c(c1)C(=O)C1CCC(=O)N1C2c1ccc2c(c1)OCO2` (stereo not given), the TGI in [1] came to 47.9 µM; in [2], 31.5 µM; in [3], 44.2 µM; in [4], 88.1 µM; in experiment [5], 15.3 µM; in [6], 48.5 µM. Moreover, the TGI turned out to be 24.4 µM in experiment [7], 23.7 µM in experiment [8], 42.8 µM in [9] and 38.1 µM in experiment [10].

As usually defined, the TGI is the concentration giving total growth inhibition. Read a high TGI as lower sensitivity of the cells. As a reminder, the GI50 is the concentration at which growth is held to half of that of the control.
